Literature values as cited in patent US11497806B2, “Immunization agents and methods of use” (priority 2014, dated 2022).
Read-outs that look alike come from different tables or passages of the source.

Assays:
transactivator = target: T1, transactivator (Homo sapiens, UniProt P06401); details: rats
T1 construct: host or cells: rat (in vivo)

luciferase target gene = details: heat treatment in the presence but not in the absence of mifepristone; FIG. 2

T1 sequence (P06401 640-891, added parts left off): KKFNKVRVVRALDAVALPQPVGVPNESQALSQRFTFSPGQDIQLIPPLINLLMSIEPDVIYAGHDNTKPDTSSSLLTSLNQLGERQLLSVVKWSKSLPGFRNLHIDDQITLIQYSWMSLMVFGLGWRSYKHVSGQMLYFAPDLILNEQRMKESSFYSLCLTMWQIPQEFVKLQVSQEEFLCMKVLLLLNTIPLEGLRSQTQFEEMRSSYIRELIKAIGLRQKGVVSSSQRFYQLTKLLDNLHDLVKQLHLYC

CC#C[C@]1(O)CC[C@H]2[C@@H]3CCC4=CC(=O)CCC4=C3[C@@H](c3ccc(N(C)C)cc3)C[C@@]21C [mifepristone]
Amount reaching an effective concentration (transactivator; i.p.): 5 µg/kg
Amount reaching an effective concentration (transactivator; orally): about 10 μg/kg
Target gene expression after heat treatment (luciferase target gene): resulted in activation of target gene expression
